Test results taken from the Deep4Chem optical property database.
Blank lines part the entries; values can stand above or below the compound they belong to.

Experiment: solvent given as SMILES

SMILES: COc1nc(Cl)nc(Nc2ccc3c4c(cccc24)C(=O)c2ccccc2-3)n1
absorption maximum (in CC#N): 407 nm
absorption maximum (in CC(C)=O): 410 nm
absorption maximum (in CC(C)O): 417.01 nm
absorption maximum (in CCOC(C)=O): 411.02 nm
absorption maximum (in CO): 414.94 nm
absorption maximum (in Cc1ccccc1): 419.99 nm
absorption maximum (in Clc1ccccc1): 418.06 nm
absorption maximum (in N#Cc1ccccc1): 415.97 nm
absorption maximum (in O=C1CCCCC1): 414.94 nm

absorption maximum (in C1CCCCC1): 362 nm
SMILES: CCCC1(CCC)c2cc(-c3ccc(C(C)(C)C)cc3)ccc2-c2ccc(-c3ccc4c(c3)C(CCC)(CCC)c3cc(-c5ccc6c(c5)C(CCC)(CCC)c5cc(-c7ccc(C(C)(C)C)cc7)ccc5-6)ccc3-4)cc21

absorption maximum (in ClC(Cl)Cl): 346 nm
SMILES: CC(C)(C)c1ccc2oc3nc4oc5ccc(-n6c7ccc(C(C)(C)C)cc7c7cc(C(C)(C)C)ccc76)cc5c4cc3c2c1

absorption maximum (in ClCCl): 366 nm
SMILES: COc1ccc(-c2cnc3cccc(-c4ccc(C(C)=O)cc4)n23)cc1

absorption maximum (in CCCCCC): 493 nm
absorption maximum (in CO): 493 nm
absorption maximum (in ClCCl): 498 nm
SMILES: CC1=CC(C)=[N+]2C1=Cc1cccn1[B-]2(F)F

absorption maximum (in C1CCOC1): 305 nm
absorption maximum (in CS(C)=O): 308 nm
absorption maximum (in ClC(Cl)Cl): 304 nm
absorption maximum (in ClCCl): 304 nm
SMILES: COc1ccc(-c2nc(-c3ccccc3O)c(-c3ccccc3O)n2-c2ccc(C)cc2)cc1

absorption maximum (in ClCCl): 355 nm
SMILES: C(=C\c1ncc(-c2ccc(OCc3ccccc3)c(OCc3ccccc3)c2)o1)/c1cccc(N2CCN(c3ccccc3)CC2)c1

SMILES: N#Cc1ccc(-n2c3ccccc3c3c2c2ccccc2n3-c2ccccc2)cc1
absorption maximum (in Cc1ccccc1): 359 nm

absorption maximum (in ClCCl): 350 nm
SMILES: C(S/C=C/c1ccc(/C=C/SC=C2CCCCC2)cc1)=C1CCCCC1

absorption maximum (in ClC(Cl)Cl): 507 nm
SMILES: CC1=CC(C)=[N+]2C1=C(c1ccc(I)cc1)c1c(C)cc(C)n1[B-]21OCCO1

absorption maximum (in C1CCOC1): 401 nm
absorption maximum (in CC#N): 398 nm
absorption maximum (in CO): 391 nm
absorption maximum (in ClCCl): 400 nm
SMILES: COc1cc(-c2nc3c4cccnc4c4ncccc4c3[nH]2)c(OC)cc1/C=C/c1nc2ccccc2[nH]1

absorption maximum (in ClCCl): 387 nm
SMILES: O=P1(c2ccccc2)C(c2ccc(C(F)(F)F)cc2)=Cc2cc3ccccc3cc21 (stereo unspecified)

SMILES: N#C/C(=C\c1ccc(C#N)cc1)c1nc(-c2ccccc2)cs1
absorption maximum (in CC#N): 370 nm
absorption maximum (in CCO): 375 nm
absorption maximum (in CN(C)C=O): 376 nm
absorption maximum (in Cc1ccccc1): 380 nm
absorption maximum (in ClCCl): 375 nm

absorption maximum (in CC#N): 398 nm
SMILES: CCOC(=O)c1c2c3c(cccc3c3cc4ccccc4cc13)N(C)C2=O

absorption maximum (in ClCCl): 382 nm
SMILES: O=c1c2cc(C#Cc3ccc(Cl)cc3)ccc2nc2ccc(C#Cc3ccc(Cl)cc3)cn12

absorption maximum (in ClCCl): 415 nm
SMILES: C(=C\c1cc(/C=C/c2ccc(N(c3ccccc3)c3ccccc3)cc2)nc(/C=C/c2ccc(N(c3ccccc3)c3ccccc3)cc2)n1)/c1ccc(N(c2ccccc2)c2ccccc2)cc1

absorption maximum (in CS(C)=O): 406 nm
SMILES: CCCCCn1c2ccc(S(=O)(=O)Cl)cc2c(=O)c2cc(S(=O)(=O)Cl)ccc21

absorption maximum (in C1COCCO1): 438 nm
SMILES: N#Cc1ccc(/C=C2\C=C(c3ccccc3)NC2=O)cc1

absorption maximum (in O): 315 nm
SMILES: [NH3+]c1cc([NH3+])cc(-c2nc3ccccc3s2)c1

absorption maximum (in C1CCOC1): 332.68 nm
SMILES: c1ccc(-c2nc(-c3ccccc3)nc(-n3c4ccccc4c4cc(-n5c6ccccc6c6ccccc65)cc(-n5c6ccccc6c6ccccc65)c43)n2)cc1

SMILES: O=C(c1ccc(-n2c3ccccc3c3ccccc32)cc1)c1ccc(-n2c3ccccc3c3ccccc32)cc1
absorption maximum (in Cc1ccccc1): 340 nm

absorption maximum (in ClCCl): 399 nm
SMILES: CCn1c2cc(-c3ccc(-c4cccs4)s3)ccc2c2ccc(-c3ccc(-c4cccs4)s3)cc21

absorption maximum (in CCCCCC): 442 nm
absorption maximum (in CO): 448 nm
SMILES: O=C1C=C(Nc2ccccc2F)C(=O)c2ccccc21

absorption maximum (in ClCCl): 505.72 nm
SMILES: O=C1c2ccccc2C(=O)C1C1C(=O)c2c3ccccc3cc3cc4ccccc4c1c23 (stereo unspecified)

absorption maximum (in ClC(Cl)Cl): 617 nm
SMILES: C[N+]1=c2ccc3c(c2C(C)(C)CC1)Oc1cc2c(cc1C=3c1ccccc1C(=O)O)C(c1ccccc1C(=O)O)=c1ccc3c(c1O2)C(C)(C)CC[N+]=3C

absorption maximum (in C1COCCO1): 420 nm
absorption maximum (in CC#N): 412 nm
absorption maximum (in CCO): 423 nm
absorption maximum (in CCOC(C)=O): 419 nm
absorption maximum (in ClC(Cl)Cl): 416 nm
absorption maximum (in c1ccccc1): 418 nm
SMILES: CCOC(=O)c1sc2nc(-c3ccccc3)c(C)c(C#N)c2c1N

SMILES: CCCCCCc1ccc(-n2c3[n+](c4c5ccccc5c5ccccc5c42)[B-](C)(C)c2cc(-n4c5ccccc5c5ccccc54)ccc2-3)cc1
absorption maximum (in C1CCOC1): 370 nm
absorption maximum (in CC#N): 369 nm
absorption maximum (in Cc1ccccc1): 375 nm
absorption maximum (in ClCCl): 372 nm

absorption maximum (in CC#N): 406 nm
absorption maximum (in ClCCl): 416 nm
SMILES: COc1ccc(-c2cc3c(s2)c(C(=O)c2ccccc2)cc(=O)n3Cc2ccccc2)cc1

absorption maximum (in CC#N): 371 nm
SMILES: O=c1oc2ccccc2cc1/C=C/c1ccc([N+](=O)[O-])cc1

absorption maximum (in C1CCCCC1): 399.4 nm
SMILES: CCc1c(C(=O)OC)c(C(=O)OC)c2ccc(-c3ccccc3)nn12

absorption maximum (in ClC(Cl)Cl): 422 nm
SMILES: CCCN1c2ccccc2Sc2cc(/C=C\c3cc(=O)oc4cc(O)ccc34)ccc21

SMILES: COc1cc(OC)c2ccc(=O)oc2c1
absorption maximum (in CC(C)O): 324 nm
absorption maximum (in CCO): 324 nm
absorption maximum (in CCOCC): 318 nm
absorption maximum (in CO): 324 nm
absorption maximum (in O): 327 nm

absorption maximum (in CCOC(C)=O): 325 nm
SMILES: CCn1c(-c2ccc(-c3ccc4c(c3)C(c3ccccc3)(c3ccccc3)c3ccccc3-4)cc2)c(-c2ccc3ccccc3c2)c(-c2ccc3ccccc3c2)c1-c1ccc(-c2ccc3c(c2)C(c2ccccc2)(c2ccccc2)c2ccccc2-3)cc1

absorption maximum (in CS(C)=O): 463 nm
absorption maximum (in ClCCl): 458 nm
SMILES: CCN(CC)c1ccc2c(c1)oc(=O)c1c(=O)oc3c(C)c4oc(=O)c5c(=O)oc6cc(N(CC)CC)ccc6c5c4cc3c12

absorption maximum (in C1CCOC1): 355 nm
SMILES: CCC1(CC)c2ccccc2-c2c1c1c(c3c2C(CC)(CC)c2cc(-c4cccs4)ccc2-3)C(CC)(CC)c2cc(N(c3ccccc3)c3ccccc3)ccc2-1

SMILES: COC(=O)/C(C#N)=C/c1cn(-c2ccccc2)nc1-c1ccc([N+](=O)[O-])cc1
absorption maximum (in C1CCOC1): 333 nm
absorption maximum (in C1COCCO1): 333 nm
absorption maximum (in CCO): 335 nm
absorption maximum (in CCOC(C)=O): 330 nm
absorption maximum (in CN(C)C=O): 330 nm
absorption maximum (in CO): 330 nm
absorption maximum (in CS(C)=O): 330 nm
absorption maximum (in Cc1ccccc1): 347 nm
absorption maximum (in ClC(Cl)Cl): 339 nm

SMILES: c1ccc(-c2nc(-c3ccccc3)c(-c3ccccc3)o2)cc1
absorption maximum (in Cc1ccccc1): 311 nm

absorption maximum (in CS(C)=O): 360 nm
SMILES: N#CC1=C(N)n2c(=O)c3ccccc3c(=O)n2C1c1ccccc1 (stereo unspecified)

absorption maximum (in ClCCl): 394 nm
SMILES: O=c1c2ccccc2n(-c2ccc(-c3ccc(N(c4ccccc4)c4ccccc4)cc3)cc2)c2ccccc12

absorption maximum (in O): 483 nm
SMILES: CC[n+]1nc2ccc(N(C)C)cc2c2cc(C)ccc21

absorption maximum (in C1CCOC1): 521 nm
SMILES: CCCCCCc1ccsc1-c1cc2c3cc(-c4sccc4CCCCCC)c4nc(C(F)(F)C(F)(F)C(F)(F)F)nc5c(-c6sccc6CCCCCC)cc(c6cc(-c7sccc7CCCCCC)c7nc(C(F)(F)C(F)(F)C(F)(F)F)nc1c7c26)c3c45

SMILES: c1cc2c3cc1c1ccc4c(c1)c1cc(ccc1[C@]15OCCO[C@]41OCCO5)c1ccc4c(c1)c1cc(ccc1[C@]15OCCO[C@]41OCCO5)c1ccc(c3c1)[C@]13OCCO[C@]21OCCO3
absorption maximum (in Cc1ccccc1): 300 nm

absorption maximum (in C1CCCCC1): 386 nm
absorption maximum (in CC#N): 409 nm
absorption maximum (in CCO): 429 nm
absorption maximum (in c1ccccc1): 395 nm
SMILES: Nc1ccc2c(c1)-c1ccccc1C2=O

absorption maximum (in ClCCl): 369 nm
SMILES: COc1cc(OC)cc(C2=[O+][B-](F)(F)OC(c3ccccc3)=C2)c1

SMILES: CC1(C)c2ccccc2N(c2ccc3c(c2)Oc2ccccc2P3(=O)c2ccccc2)c2ccccc21 (stereo unspecified)
absorption maximum (in Cc1ccccc1): 348 nm

absorption maximum (in ClCCl): 310 nm
SMILES: COC(=O)C1=C(C(=O)OC)C2(c3ccccc3-c3ccccc32)[C@@H](c2ccc([N+](=O)[O-])cc2)C=C2c3cc(OC)c(OC)cc3CCN21

absorption maximum (in CC#N): 343 nm
SMILES: Cc1ccc(-c2ccc(/C=C/c3ccc(C#N)cc3)cn2)nc1

absorption maximum (in CCO): 598 nm
absorption maximum (in ClC(Cl)Cl): 610 nm
absorption maximum (in O): 601 nm
SMILES: CC[N+](CC)=c1ccc2c(-c3ccccc3C(=O)O)c3c(=O)oc4cc5c(cc4c3oc-2c1)CCCN5C

absorption maximum (in CC#N): 643 nm
absorption maximum (in ClC(Cl)Cl): 650 nm
SMILES: F[B-]1(F)n2c(-c3ccccc3)cc(-c3ccccc3)c2N=C2C(c3ccccc3)=CC(c3ccccc3)=[N+]21

absorption maximum (in CC(C)O): 529 nm
absorption maximum (in CCO): 527 nm
absorption maximum (in CO): 522 nm
absorption maximum (in O): 515 nm
SMILES: O=C([O-])c1ccccc1-c1c2cc(Br)c(=O)c(Br)c-2oc2c(Br)c([O-])c(Br)cc12

absorption maximum (in C1CCOC1): 336 nm
SMILES: Cc1cc(C2=C(c3c(C)sc(-c4ccc(-c5nc(-c6ccccc6)c(-c6ccccc6)[nH]5)cc4)c3C)C(F)(F)C(F)(F)C2(F)F)c(C)s1

absorption maximum (in ClCCl): 309 nm
SMILES: CN(C)c1ccc(N2c3c(sc4ccccc34)Sc3sc4ccccc4c32)cc1

absorption maximum (in C1COCCO1): 401 nm
SMILES: COC(=O)c1ccc(/C=C2\C=C(c3ccccc3)OC2=O)cc1

absorption maximum (in CC#N): 321 nm
SMILES: COc1ccc(/C=C/c2ccccc2)cc1OC

absorption maximum (in C1CCCCC1): 263.78 nm
SMILES: Cc1ccc(C)c(C)c1

absorption maximum (in CC#N): 388 nm
absorption maximum (in CCO): 319 nm
absorption maximum (in ClCCl): 395 nm
SMILES: C[P+]1(c2ccccc2)C2=C(c3ccccc31)S(=O)(=O)c1ccccc12 (stereo unspecified)

SMILES: O=Cc1ccc2ccc3cccc4ccc1c2c34
absorption maximum (in C1CCOC1): 391 nm
absorption maximum (in CC#N): 390 nm
absorption maximum (in CCCCCC): 387 nm
absorption maximum (in CCO): 389 nm
absorption maximum (in CN(C)C=O): 390 nm
absorption maximum (in CO): 389 nm
absorption maximum (in Cc1ccccc1): 391 nm
absorption maximum (in ClCCl): 392 nm

absorption maximum (in ClC(Cl)Cl): 323 nm
SMILES: CN(C)c1ccc(-c2ccc(-c3cc(-c4ccccc4)c(-c4ccccc4)c(-c4ccccc4)c3-c3ccccc3)cc2)cc1

absorption maximum (in CCO): 373 nm
SMILES: CC(C)(C)Nc1cc2sc3cc(NC(C)(C)C)c(F)cc3c(=O)c2cc1F

absorption maximum (in CC#N): 460 nm
SMILES: C[C@]12SC(=O)C=C1c1nc(-c3ccccc3)[nH]c1C1=CC(=O)S[C@@]12C
